Source: ChEMBL document CHEMBL4385622, “Discovery of velpatasvir (GS-5816): A potent pan-genotypic HCV NS5A inhibitor in the single-tablet regimens Vosevi® and Epclusa®” (Bioorg Med Chem Lett, 2019)

Experiments:
[1] = Fraction absorbed in cynomolgus monkey; format: ADME, Macaca fascicularis; conditions: in vivo, read-out: Fabs
[2] = Fraction absorbed in rat; format: ADME; conditions: in vivo, read-out: Fabs
[3] = Fraction absorbed in dog; format: ADME, Canis lupus familiaris; conditions: in vivo, read-out: Fabs
[4] = molecular target: T1, Nonstructural protein 5A (Hepatitis C virus) (UniProt Q5L478); assay: Potency index, ratio of EC50 of ledipasvir to EC50 of test compound for inhibition of NS5A in HCV genotype 2a J6 infected in human HuH7 replicon cells assessed as reduction in viral replication after 3 days by luciferase reporter gene assay; format: cell-based; conditions: Hepatitis C virus subtype 2a
T1 sequence (whole entry): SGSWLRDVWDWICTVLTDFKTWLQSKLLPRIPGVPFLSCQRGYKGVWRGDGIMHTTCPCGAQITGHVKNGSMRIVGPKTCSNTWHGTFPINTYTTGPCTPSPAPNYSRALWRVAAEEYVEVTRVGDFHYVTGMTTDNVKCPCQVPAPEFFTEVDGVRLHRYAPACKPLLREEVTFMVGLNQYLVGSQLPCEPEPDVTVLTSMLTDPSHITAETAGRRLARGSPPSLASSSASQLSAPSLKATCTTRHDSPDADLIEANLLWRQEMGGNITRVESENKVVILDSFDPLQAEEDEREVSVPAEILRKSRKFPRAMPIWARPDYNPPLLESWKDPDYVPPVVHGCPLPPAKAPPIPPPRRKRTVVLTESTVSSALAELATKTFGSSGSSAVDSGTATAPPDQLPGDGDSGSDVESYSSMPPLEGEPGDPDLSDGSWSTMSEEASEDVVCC

[5] = molecular target: T1, Nonstructural protein 5A (Hepatitis C virus); assay: Potency index, ratio of EC50 of ledipasvir to EC50 of test compound for inhibition of NS5A in HCV genotype 2b infected in human HuH7 replicon cells assessed as reduction in viral replication after 3 days by luciferase reporter gene assay; format: cell-based; conditions: Hepatitis C virus subtype 2b
[6] = molecular target: T1, Nonstructural protein 5A (Hepatitis C virus); assay: Potency index, ratio of EC50 of ledipasvir to EC50 of test compound for inhibition of NS5A in HCV genotype 3a infected in human HuH7 replicon cells assessed as reduction in viral replication after 3 days by luciferase reporter gene assay; format: cell-based; conditions: Hepatitis C virus subtype 3a
[7] = Clearance in dog at 0.25 mg/kg, iv; format: ADME, organism-based, Canis lupus familiaris; conditions: in vivo
[8] = Clearance in monkey at 0.5 mg/kg, iv; format: ADME, organism-based, Macaca mulatta; conditions: rhesus monkey, in vivo
[9] = Unbound drug level in rat plasma; format: ADME, cell-free
[10] = Unbound drug level in dog plasma; format: ADME, cell-free, Canis lupus familiaris
[11] = Unbound drug level in monkey plasma; format: ADME, cell-free, Macaca mulatta; conditions: rhesus monkey
[12] = Unbound drug level in human plasma; format: ADME, cell-free
[13] = Clearance in rat at 2 mg/kg, iv; format: ADME, organism-based; conditions: in vivo
[14] = Volume of distribution at steady state in rat at 2 mg/kg, iv; format: ADME, organism-based; conditions: in vivo, read-out: Vdss
[15] = Volume of distribution at steady state in dog at 0.25 mg/kg, iv; format: ADME, organism-based, Canis lupus familiaris; conditions: in vivo, read-out: Vdss
[16] = Volume of distribution at steady state in monkey at 0.5 mg/kg, iv; format: ADME, organism-based, Macaca mulatta; conditions: rhesus monkey, in vivo, read-out: Vdss
[17] = Half life in rat at 2 mg/kg, iv; format: ADME, organism-based; conditions: in vivo
[18] = Half life in dog at 0.25 mg/kg, iv; format: ADME, organism-based, Canis lupus familiaris; conditions: in vivo
[19] = Half life in monkey at 0.5 mg/kg, iv; format: ADME, organism-based, Macaca mulatta; conditions: rhesus monkey, in vivo
[20] = Half life in human at 100 mg, po; format: ADME; conditions: in vivo
[21] = Oral bioavailability in rat at 2 mg/kg; format: ADME, organism-based; conditions: in vivo
[22] = Oral bioavailability in dog at 0.5 mg/kg; format: ADME, organism-based, Canis lupus familiaris; conditions: in vivo
[23] = Oral bioavailability in monkey at 1 mg/kg; format: ADME, organism-based, Macaca mulatta; conditions: rhesus monkey, in vivo
[24] = Oral bioavailability in human at 100 mg; format: ADME, organism-based; conditions: in vivo
[25] = Cytotoxicity against human HuH7 cells infected with HCV genotype 1a H77 assessed as reduction in cell viability incubated for 5 days by CellTiter-Glo luminescent assay; format: cell-based, Huh-7
[26] = Cytotoxicity against human HepG2 cells infected with HCV genotype 1a H77 assessed as reduction in cell viability incubated for 5 days by CellTiter-Glo luminescent assay; format: cell-based
[27] = Cytotoxicity against human PC3 cells infected with HCV genotype 1a H77 assessed as reduction in cell viability incubated for 5 days by CellTiter-Glo luminescent assay; format: cell-based, PC-3
[28] = Cytotoxicity against human MT4 cells infected with HCV genotype 1a H77 assessed as reduction in cell viability incubated for 5 days by CellTiter-Glo luminescent assay; format: cell-based
[29] = Cytotoxicity against human MRC5 cells infected with HCV genotype 1a H77 assessed as reduction in cell viability incubated for 5 days by CellTiter-Glo luminescent assay; format: cell-based
[30] = Cytotoxicity against human HuH7 cells infected with HCV genotype 1b Con-1 assessed as reduction in cell viability incubated for 5 days by CellTiter-Glo luminescent assay; format: cell-based, Huh-7
[31] = Cytotoxicity against human HepG2 cells infected with HCV genotype 1b Con-1 assessed as reduction in cell viability incubated for 5 days by CellTiter-Glo luminescent assay; format: cell-based
[32] = Cytotoxicity against human PC3 cells infected with HCV genotype 1b Con-1 assessed as reduction in cell viability incubated for 5 days by CellTiter-Glo luminescent assay; format: cell-based, PC-3
[33] = Cytotoxicity against human MT4 cells infected with HCV genotype 1b Con-1 assessed as reduction in cell viability incubated for 5 days by CellTiter-Glo luminescent assay; format: cell-based
[34] = Cytotoxicity against human MRC5 cells infected with HCV genotype 1b Con-1 assessed as reduction in cell viability incubated for 5 days by CellTiter-Glo luminescent assay; format: cell-based
[35] = Selectivity index, ratio of CC50 for human Huh7 cells infected with HCV genotype 1a H77 to EC50 for NS5A in HCV genotype 1a H77 infected in human HuH7 replicon cells; format: toxicity, cell-based; conditions: read-out: Ratio CC50/EC50
[36] = Selectivity index, ratio of CC50 for human HepG2 cells infected with HCV genotype 1a H77 to EC50 for NS5A in HCV genotype 1a H77 infected in human HepG2 replicon cells; format: toxicity, cell-based; conditions: read-out: Ratio CC50/EC50
[37] = Selectivity index, ratio of CC50 for human PC3 cells infected with HCV genotype 1a H77 to EC50 for NS5A in HCV genotype 1a H77 infected in human PC3 replicon cells; format: toxicity, cell-based; conditions: read-out: Ratio CC50/EC50
[38] = Selectivity index, ratio of CC50 for human MT4 cells infected with HCV genotype 1a H77 to EC50 for NS5A in HCV genotype 1a H77 infected in human MT4 replicon cells; format: toxicity, cell-based; conditions: read-out: Ratio CC50/EC50
[39] = Selectivity index, ratio of CC50 for human MRC5 cells infected with HCV genotype 1a H77 to EC50 for NS5A in HCV genotype 1a H77 infected in human MRC5 replicon cells; format: toxicity, cell-based; conditions: read-out: Ratio CC50/EC50

What does the source list for COC[C@H]1C[C@@H](c2nc3ccc4cc5c(cc4c3[nH]2)OCc2cc(-c3cnc([C@@H]4CC[C@H](C)N4C(=O)[C@@H](NC(=O)OC)C(C)C)[nH]3)ccc2-5)N(C(=O)[C@@H](NC(=O)OC)C(C)C)C1?
Fa [1]: 64%; Fa [2]: 13%

For COC(=O)N[C@H](C(=O)N1CCC[C@H]1c1ncc(-c2ccc3c(c2)COc2cc4c(ccc5nc([C@@H]6CCCN6C(=O)[C@H](NC(=O)OC)c6ccccc6)[nH]c54)cc2-3)[nH]1)C(C)C, which Fa [3] is on record?
The Fa was 56%.

What about the Fa [1] of the same molecule?
Its Fa is 16%.

What about the Fa [2] of the same molecule?
The Fa was 13%.

What does the source list for COC(=O)N[C@H](C(=O)N1CCC[C@H]1c1ncc(-c2cc3c4c(c2)OCc2cc(-c5cnc([C@@H]6CCCN6C(=O)[C@@H](NC(=O)OC)C(C)C)[nH]5)cc(c2-4)OC3)[nH]1)C(C)C?
Fa [3]: 70%; Fa [1]: 15%; Fa [2]: 23%; Ratio EC50 [4]: 28; Ratio EC50 [5]: 300; Ratio EC50 [6]: 4800

With COC(=O)N[C@H](C(=O)N1CCC[C@H]1c1ncc(-c2ccc3c(c2)COc2cc4c(ccc5nc([C@@H]6C[C@H](C)CN6C(=O)[C@@H](NC(=O)OC)C(C)C)[nH]c54)cc2-3)[nH]1)C(C)C as the molecule, how does the Fa [2] read?
Its Fa is 10%.

With COC(=O)N[C@H](C(=O)N1[C@@H](C)CC[C@H]1c1nc2ccc3cc4c(cc3c2[nH]1)OCc1cc(-c2cnc([C@@H]3C[C@H](C)CN3C(=O)[C@H](NC(=O)OC)c3ccccc3)[nH]2)ccc1-4)C(C)C as the molecule, how does the Fa [2] read?
Its Fa is 4%.

Which results are given for COC(=O)N[C@H](C(=O)N1CCC[C@H]1c1ncc(-c2cc3c4c(c2)COc2cc(-c5cnc([C@@H]6CCCN6C(=O)[C@@H](NC(=O)OC)C(C)C)[nH]5)cc(c2-4)OC3)[nH]1)C(C)C?
Fa [3]: 100%; Fa [2]: 18%

Which Fa [3] does the source give for COC(=O)N[C@H](C(=O)N1CCC[C@H]1c1ncc(-c2ccc3c(c2)COc2cc4c(ccc5nc([C@@H]6CCCN6C(=O)[C@@H](NC(=O)OC)C(C)C)[nH]c54)cc2-3)[nH]1)C(C)C here?
Its Fa is 50%.

And the Fa [2]?
The Fa was 15%.

Which results are given for COC[C@H]1C[C@@H](c2ncc(-c3ccc4c(c3)COc3cc5c(ccc6nc([C@@H]7C[C@H](C)CN7C(=O)[C@@H](NC(=O)OC)C(C)C)[nH]c65)cc3-4)[nH]2)N(C(=O)[C@H](NC(=O)OC)c2ccccc2)C1?
Fa [1]: 4%; Fa [2]: 9%

With COC[C@H]1C[C@@H](c2ncc(-c3ccc4c(c3)COc3cc5c(ccc6nc([C@@H]7C[C@H](COC)CN7C(=O)[C@@H](NC(=O)OC)C(C)C)[nH]c65)cc3-4)[nH]2)N(C(=O)[C@@H](NC(=O)OC)C(C)C)C1 as the molecule, how does the Fa [2] read?
Its Fa is 10%.

Which results are given for COC[C@H]1C[C@@H](c2ncc(-c3ccc4c(c3)COc3cc5c(ccc6nc([C@@H]7CC[C@H](C)N7C(=O)[C@@H](NC(=O)OC)C(C)C)[nH]c65)cc3-4)[nH]2)N(C(=O)[C@H](NC(=O)OC)c2ccccc2)C1 [VELPATASVIR]?
clearance [7]: 0.25 L/h/kg; clearance [8]: 0.3 L/h/kg; Fa [3]: 29%; Fa [1]: 37%; Fa [2]: 36%; Fu [9]: 0.2%; Fu [10]: 0.2%; Fu [11]: 0.4%; Fu [12]: 0.3%; clearance [13]: 0.94 L/h/kg; Vd [14]: 1.61 L/kg; Vd [15]: 1.43 L/kg; Vd [16]: 1.6 L/kg; half-life [17]: 2.25 h; half-life [18]: 5.2 h; half-life [19]: 5.03 h; half-life [20]: 15.7 h; bioavailability [21]: 28%; bioavailability [22]: 25%; bioavailability [23]: 30%; bioavailability [24]: 50%; CC50 at 120 h [25]: > 44.4 µM; CC50 at 120 h [26]: > 44.4 µM; CC50 at 120 h [27]: > 44.4 µM; CC50 at 120 h [28]: > 44.4 µM; CC50 at 120 h [29]: > 44.4 µM; CC50 at 120 h [30]: > 44.4 µM; CC50 at 120 h [31]: > 44.4 µM; CC50 at 120 h [32]: > 44.4 µM; CC50 at 120 h [33]: > 44.4 µM; CC50 at 120 h [34]: > 44.4 µM; selectivity ratio [35]: > 4.9e+06; selectivity ratio [36]: > 4.9e+06; selectivity ratio [37]: > 4.9e+06; selectivity ratio [38]: > 4.9e+06; selectivity ratio [39]: > 4.9e+06

For COC[C@H]1C[C@@H](c2ncc(-c3ccc4c(c3)COc3cc5c(ccc6nc([C@@H]7CCCN7C(=O)[C@@H](NC(=O)OC)C(C)C)[nH]c65)cc3-4)[nH]2)N(C(=O)[C@H](NC(=O)OC)c2ccccc2)C1, which Fa [1] is on record?
The Fa was 3%.

What about the Fa [2] of the same molecule?
The Fa was 12%.
